According to ChEMBL document CHEMBL5136982, “Structure-Based Design of Potent, Selective, and Orally Bioavailable VPS34 Kinase Inhibitors” (J Med Chem, 2022):

Columns and labels:
[1] = Lipophilicity, logD of compound at pH 7.4 by shake flask method; format: physicochemical; conditions: buffer
[2] = Microsomal stability in human liver microsome assessed as clearance at 1.0 uM preincubated for 5 mins followed by NADPH addition measured upto 60 mins by LC-MS/MS analysis; format: ADME; conditions: liver microsomes, time < 65 min
[3] = Microsomal stability in rat liver microsome assessed as clearance at 1.0 uM preincubated for 5 mins followed by NADPH addition measured upto 60 mins by LC-MS/MS analysis; format: ADME; conditions: liver microsomes, time < 65 min
[4] = Oral bioavailability in Sprague-Dawley rat at 2 mg/kg measured upto 8 hrs by LC-MS/MS analysis; format: ADME, organism-based; conditions: in vivo
[5] = Unbound clearance in Sprague-Dawley rat at 0.5 mg/kg, iv measured upto 8 hrs by LC-MS/MS analysis; format: ADME, organism-based; conditions: in vivo
[6] = Plasma clearance in Sprague-Dawley rat at 0.5 mg/kg, iv measured upto 8 hrs by LC-MS/MS analysis; format: ADME, organism-based
[7] = Half life in Sprague-Dawley rat at 2 mg/kg, po measured upto 8 hrs by LC-MS/MS analysis; format: ADME, organism-based; conditions: in vivo
[8] = Volume of distribution at steady state in Sprague-Dawley rat at […] measured upto 8 hrs by LC-MS/MS analysis; format: ADME, organism-based; conditions: in vivo
[9] = AUC in Sprague-Dawley rat at 0.5 mg/kg, iv measured upto 8 hrs by LC-MS/MS analysis; format: ADME, organism-based; parameters: dose 0.5 mg/kg, time < 8 hrs, route iv; conditions: in vivo

Row | Compound | logD [1] | CLhep predicted at 1 µM [2] | CLhep predicted at 1 µM [3] | bioavailability [4] | CL free [5] | clearance [6] | half-life [7] | Vdss [8] | AUC at 8 h [9]
1 | O=C(Nc1cc(-c2ccn3ccnc3c2)ccn1)C1CC1 | 2.1 | 17 mL/min/kg | 40 mL/min/kg |  |  |  |  |  | 
2 | O=C(Nc1cc2cc(-c3nncn3-c3ccccc3Cl)ccc2cn1)C1CC1F (configuration not stated) | 3.1 | 12 mL/min/kg | 7.2 mL/min/kg |  |  |  |  |  | 
3 | C[C@@H]1COCCN1c1cc2n(n1)[C@H](C1CC1)C1(CC1)NC2=O | 1.6 | < 3.9 mL/min/kg | 11 mL/min/kg |  |  |  |  |  | 
4 | C[C@@H]1COCCN1c1cc2n(n1)[C@H](C1CCC1)CNC2=O | 1.5 | < 3.9 mL/min/kg | 23 mL/min/kg |  |  |  |  |  | 
5 | C[C@@H]1COCCN1c1cc2n(n1)C(C(C)(C)O)CNC2=O (single isomer, unassigned) |  | < 3.9 mL/min/kg | < 6.1 mL/min/kg |  |  |  |  |  | 
6 | C[C@@H]1CNC(=O)c2cc(-c3ccnc(NC(=O)C4CC4)c3)nn21 | 1.7 | < 3.9 mL/min/kg | < 6.1 mL/min/kg |  |  |  |  |  | 
7 | C[C@@H]1COCCN1c1cc2n(n1)[C@H](C1CC1)[C@H](C1CC1)NC2=O | 1.7 | < 3.9 mL/min/kg | < 6.1 mL/min/kg |  |  |  |  |  | 
8 | CC(C)[C@@H]1CNC(=O)c2cc(-c3ccnc(NC(=O)C4CC4)c3)nn21 | 2.4 | < 3.9 mL/min/kg | 22 mL/min/kg |  |  |  |  |  | 
9 | CC(C)[C@@H]1CNC(=O)c2cc(N3CCOC[C@H]3C)nn21 | 1.2 | < 3.9 mL/min/kg | 12 mL/min/kg | 68% | 19 mL/min/kg |  |  |  | 
10 | NC(=O)c1ccccc1Nc1ccnc(NC(=O)C2CC2)c1 | 1.8 | 5 mL/min/kg | 15 mL/min/kg |  |  |  |  |  | 
11 | C[C@@H]1COCCN1c1cc2n(n1)[C@@H]1CCC[C@@H]1NC2=O | 1 | < 3.9 mL/min/kg | < 6.1 mL/min/kg | 61% |  | 7.8 mL/min/kg | 1.4 h | 0.83 L/kg | 4 µM·h
12 | C[C@@H]1COCCN1c1cc2n(n1)[C@H](C1CC1)CNC2=O | 1 | < 3.9 mL/min/kg | 11 mL/min/kg |  |  |  |  |  | 
13 | C[C@@H]1COCCN1c1cc2n(n1)[C@H](C(C)(C)C)CNC2=O | 1.4 | 4.7 mL/min/kg | 24 mL/min/kg |  |  |  |  |  | 
14 | C[C@@H]1COCCN1c1cc2n(n1)[C@H](C1CCCC1)CNC2=O | 1.6 | 9.1 mL/min/kg | 28 mL/min/kg |  |  |  |  |  | 
15 | C[C@@H]1NC(=O)c2cc(N3CCOC[C@H]3C)nn2[C@@H]1C1CC1 | 1.3 | < 3.9 mL/min/kg | 7.8 mL/min/kg |  |  |  |  |  | 
16 | CC(C)[C@@H]1CNC(=O)c2cc(N3CCOCC3)nn21 | 0.7 | < 3.9 mL/min/kg | < 6.1 mL/min/kg |  |  |  |  |  | 
17 | Cn1ccc(-c2ccnc(NC(=O)C3CC3)c2)cc1=O | 1.3 | 6.4 mL/min/kg | < 6.1 mL/min/kg |  |  |  |  |  | 
18 | C[C@@H]1COCCN1c1cc2n(n1)C[C@H](C(F)(F)F)NC2=O | 1.1 | < 3.9 mL/min/kg | < 6.1 mL/min/kg |  |  |  |  |  | 
19 | Cc1cnc(NC(=O)C2CC2)cc1-c1cc2n(n1)[C@H](C(C)C)CNC2=O | 2.5 | 11 mL/min/kg | 25 mL/min/kg |  |  |  |  |  | 
20 | C[C@@H]1COCCN1c1cc2n(n1)[C@H](C1CC1)C(C)(C)NC2=O | 1.5 | < 3.9 mL/min/kg | < 6.1 mL/min/kg |  |  |  |  |  | 
21 | O=C(Nc1cc(-n2cnc3ccccc32)ccn1)C1CC1 | 2.8 | 19 mL/min/kg | 34 mL/min/kg |  |  |  |  |  | 
22 | C[C@@H]1COCCN1c1cc2n(n1)[C@H](C(F)(F)F)CNC2=O | 0.8 | < 3.9 mL/min/kg | 8.5 mL/min/kg |  |  |  |  |  | 
